What was measured:
Assay type in all cases: in vitro ADME
[1] = Liver microsome stability experiment (cynomolgus monkey); conditions: pH 7.4, Cynomolgus monkey liver microsomes, 0.5 mg/mL; for CLint scaled at 1 µM: cynomolgus monkey, liver microsomes
Protocol: (§1) This experiment aimed to evaluate the phase I metabolic stability of the compounds of the present disclosure in liver microsomes of SD rats, beagle dogs, cynomolgus monkeys, and humans.
(§2) • (1) Buffer preparation: 73.21 g of dipotassium hydrogen phosphate trihydrate and 10.78 g of potassium dihydrogen phosphate were dissolved in 4000 mL of ultrapure water. The pH of the solution was adjusted to within 7.40 ± 0.10 using 10% phosphoric acid or 1 M potassium hydroxide, resulting in a final concentration of 100 mM. • (2) Solution preparation and dilution: Stock solutions of the test compounds at a concentration of 10 mM were prepared in dimethyl sulfoxide (DMSO) and stored at 4 °C, and they were diluted into 100 µM working solutions with pure acetonitrile when used. A stock solution of the control compound testosterone at a concentration of 10 mM was prepared in DMSO and stored at -20 °C, and it was diluted into a 400 µM working solution with pure acetonitrile when used. • (3) Termination solution preparation: The termination solution was an acetonitrile solution containing an internal standard (terfenadine). The prepared termination solution was stored in a refrigerator at 2-8 °C. • (4) Liver microsome solution preparation: Liver microsomes from various species (SD rat, beagle dog, cynomolgus monkey, and human) were diluted into 20× working solutions using 100 mM potassium phosphate buffer. The final concentration of the liver microsomes in the reaction system was 0.5 mg/mL. • (5) Reduced nicotinamide adenine dinucleotide phosphate (NADPH) regeneration system preparation: Appropriate amounts of nicotinamide adenine dinucleotide phosphate (NADP), glucose-6-phosphate (G6P), magnesium chloride (MgCl2), and glucose-6-phosphate dehydrogenase (G6PDH) were weighed to prepare stock solutions at concentrations of 65.33 mM, 330 mM, 300 mM, and 250 Units/mL, respectively. The four stock solutions described above were each added to an appropriate amount of buffer, and the mixture was mixed well by gently inverting up and down. The final concentrations of NADP, G6P, MgCl2, and G6PDH in the NADPH regeneration system were 2.65 mM, 10.2 mM, 6.12 mM, and 2.45 Units/mL, respectively. • (6) Incubation process: The incubation was completed in 96-well plates. Several incubation plates were prepared and named T0, T5, T10, T20, T40, T60, and NCF60, respectively. The first 6 plates corresponded to reaction time points of 0 min, 5 min, 10 min, 20 min, 40 min, and 60 min, respectively. The NCF60 plate was incubated for 60 min with potassium phosphate buffer replacing the NADPH regeneration system solution. Samples under all conditions were prepared in triplicate.
(§3) 2 µL of the test compound or control compound and 100 µL of microsome working solution (containing 1 mg/mL liver microsome protein) were added to each of the T0, T5, T10, T20, T40, T60, and NCF60 plates, and only the microsome working solution was added to the Blank 60 plate. The plates described above were then pre-incubated in a 37 °C water bath for about 10 min.
(§4) After the pre-incubation was completed, 98 µL of the NADPH regeneration system working solution was added to each sample well except for the NCF60 plate and the T0 plate to initiate the reaction, and 98 µL of potassium phosphate buffer was added to each well of the NCF60 plate. Therefore, for the sample wells containing the test sample or control substance working solution, the final concentrations of TC and testosterone in the reaction were 1 µM and 4 µM, respectively, the concentration of liver microsomes was 0.5 mg/mL, and the final concentrations of DMSO and acetonitrile in the reaction system were 0.01% (v/v) and 0.99% (v/v), respectively.
(§5) After incubation for an appropriate time (e.g., 5 min, 10 min, 20 min, 40 min, and 60 min), 600 µL of a termination solution (an acetonitrile solution containing 100 ng/mL […]) was added to each test compound sample well and control compound sample well to terminate the reaction. […]

[2] = Liver microsome stability experiment (beagle dog); conditions: for CLint scaled at 1 µM: beagle, dog, liver microsomes, pH 7.4, Beagle dog liver microsomes; for half-life at 1 µM: pH 7.4, Beagle dog liver microsomes
Protocol: as §1, §2, §3, §4, §5

[3] = Liver microsome stability experiment (human); conditions: for CLint scaled at 1 µM: human, liver microsomes, pH 7.4, Human liver microsomes; for half-life at 1 µM: pH 7.4, Human liver microsomes
Protocol: as §1, §2, §3, §4, §5

[4] = Liver microsome stability experiment (SD rat); conditions: for CLint scaled at 1 µM: SD, rat, liver microsomes, pH 7.4, SD rat liver microsomes; for half-life at 1 µM: pH 7.4, SD rat liver microsomes
Protocol: as §1, §2, §3, §4, §5

[5] = 0.5 mg/mL, 1 µM, read-out: CL(liver)
[6] = 0.5 mg/mL, 1 µM, read-out: CLint(liver)
[7] = read-out: Clearance rate classification

CLint scaled at 1 µM ([1]; read-out: CL(liver)) | CLint scaled at 1 µM ([1]; read-out: CLint(liver)) | half-life at 1 µM [1] | CLint scaled at 1 µM [2, 5] | CLint scaled at 1 µM [2, 6] | CLint scaled at 1 µM [2, 7] | half-life at 1 µM ([2]; 0.5 mg/mL, 1 µM) | CLint scaled at 1 µM [3, 5] | CLint scaled at 1 µM [3, 6] | CLint scaled at 1 µM [3, 7] | half-life at 1 µM ([3]; 0.5 mg/mL, 1 µM) | CLint scaled at 1 µM [4, 5] | CLint scaled at 1 µM [4, 6] | CLint scaled at 1 µM [4, 7] | half-life at 1 µM ([4]; 0.5 mg/mL, 1 µM) | SMILES
28.3 mL/min/kg | 81 mL/min/kg | 0.385 h | 10.5 mL/min/kg | 15.8 mL/min/kg | 13.2 to 72.1 mL/min/kg | 2.1 h | 6.9 mL/min/kg | 10.3 mL/min/kg | 8.9 to 48.3 mL/min/kg | 2.01 h | 18.9 mL/min/kg | 28.7 mL/min/kg | 23.7 to 129 mL/min/kg | 1.45 h | O=c1nc(OCc2cc(F)c(Oc3ccnc(C(F)(F)F)c3)c(F)c2)cc2n1C[C@H]1CCCN21 [Comparative Example 1, reference compound]
< 8.2 mL/min/kg | < 10 mL/min/kg | > 3.11 h | < 8 mL/min/kg | < 10.7 mL/min/kg | ≤ 13.2 mL/min/kg | > 3.11 h | < 5.06 mL/min/kg | < 6.69 mL/min/kg | ≤ 8.9 mL/min/kg | > 3.11 h | < 10.8 mL/min/kg | < 13.4 mL/min/kg | ≤ 23.7 mL/min/kg | > 3.11 h | O=c1nc(OCc2cc(F)c(Oc3ccnc(C(F)(F)F)c3)c(F)c2)cc2n1C[C@H]1CCN21 [Example 34-R]

Source: patent EP4748841A1, “BICYCLO[5,6] IMIDAZOLE PYRIMIDONE DERIVATIVE AND PREPARATION METHOD THEREFOR AND USE THEREOF” (Shujing Biopharma Co., Ltd, priority 2023, dated 2025)
